pIC50: −log10 of the molar value.
Test system: TEAD1
Assay: MCF-7 TEAD1-luciferase reporter assay (MCF7-TEAD-Luc)
Type: cell-based
Details: MCF7 cells, overnight; for pIC50: Homo sapiens; for TEAD1-Luc MCF7: Max Inhibition: % of DMSO-treated control
Description: The ability of compounds to inhibit TEAD-dependent transcription was assessed in the MCF7-TEAD-Luc reporter assay (BPS #60618). Cells were seeded at 10,000 cells in 200 μL per well into white wall, clear bottom 96-well plates (Corning #3610) and incubated at 37° C. for 24 hours, then treated with serial diluted compounds overnight, and luciferase signal was measured using the ONE-Step Luciferase Assay System (BPS #60690) using an EnSight Multimode plate reader (PerkinElmer, model #MLDHH34000000, integration time 100 ms) with Kaleido 3.0. software. For data analysis, dose-dependent curves were plotted as “% inhibition” (% of DMSO-treated control wells), and were fitted by four-parametric model in GraphPad Prism to obtain IC50 values.

pIC50 | Compound | TEAD1-Luc MCF7: Max Inhibition
6.30 to 7.00 | C=CC(=O)N1CC[C@](O)(/C=C/c2ccc(C(F)(F)F)cc2)C1 (single isomer, unassigned) [Example 27, (S*,E)-1-(3-hydroxy-3-(4-(trifluoromethyl)styryl)pyrrolidin-1-yl)prop-2-en-1-one] | A (A ≥ 75%)
7.00 to 8.00 | C=CC(=O)N1CC[C@@](O)(/C=C/c2ccc(C(F)(F)F)cc2)C1 (single isomer, unassigned) [Example 28, (R*,E)-1-(3-hydroxy-3-(4-(trifluoromethyl)styryl)pyrrolidin-1-yl)prop-2-en-1-one] | B (75% > B ≥ 50%)
7.00 to 8.00 | C=CC(=O)N1CC[C@@](C)(/C=C/c2ccc(C(F)(F)F)cc2)C1 (single isomer, unassigned) [Example 29, 1-[(3S*)-3-methyl-3-{2-[4-(trifluoromethyl)phenyl]ethenyl}pyrrolidin-1-yl]prop-2-en-1-one] | A (A ≥ 75%)
7.00 to 8.00 | C=CC(=O)N1CC[C@](C)(/C=C/c2ccc(C(F)(F)F)cc2)C1 (single isomer, unassigned) [Example 30, 1-[(3R*)-3-methyl-3-{2-[4-(trifluoromethyl)phenyl]ethenyl}pyrrolidin-1-yl]prop-2-en-1-one] | A (A ≥ 75%)
6.30 to 7.00 | C=CC(=O)N1CC(/C=C/c2ccc(C(F)(F)F)cc2)C(C)(C)C1 (single isomer, unassigned) [Example 33] | A (A ≥ 75%)
7.00 to 8.00 | C=CC(=O)N1CC[C@@H](/C=C\c2cccc(C(F)(F)F)c2)C1 (single isomer, unassigned) [Example 41, (S*,Z)-1-(3-(3-(trifluoromethyl)styryl)pyrrolidin-1-yl)prop-2-en-1-one] | A (A ≥ 75%)
6.30 to 7.00 | C=CC(=O)N1CC[C@H](/C=C\c2cccc(C(F)(F)F)c2)C1 (single isomer, unassigned) [Example 42, (R*,Z)-1-(3-(3-(trifluoromethyl)styryl)pyrrolidin-1-yl)prop-2-en-1-one] | A (A ≥ 75%)
6.30 to 7.00 | C=CC(=O)N1CC[C@H](/C=C/c2cccc(C(F)(F)F)c2)C1 (single isomer, unassigned) [Example 43, (R*,E)-1-(3-(3-(trifluoromethyl)styryl)pyrrolidin-1-yl)prop-2-en-1-one] | B (75% > B ≥ 50%)
7.00 to 8.00 | C=CC(=O)N1CC[C@@H](/C=C/c2cccc(C(F)(F)F)c2)C1 (single isomer, unassigned) [Example 44, (S*,E)-1-(3-(3-(trifluoromethyl)styryl)pyrrolidin-1-yl)prop-2-en-1-one] | A (A ≥ 75%)
7.00 to 8.00 | C=CC(=O)N1CC[C@H](C#Cc2cccc(C(F)(F)F)c2)C1 (single isomer, unassigned) [Example 56, (R*)-1-(3-((3-(trifluoromethyl)phenyl)ethynyl)pyrrolidin-1-yl)prop-2-en-1-one] | A (A ≥ 75%)
7.00 to 8.00 | C=CC(=O)N1CC[C@@H](C#Cc2cccc(C(F)(F)F)c2)C1 (single isomer, unassigned) [Example 57, (S*)-1-(3-((3-(trifluoromethyl)phenyl)ethynyl)pyrrolidin-1-yl)prop-2-en-1-one] | A (A ≥ 75%)
≥ 8.00 | C=CC(=O)N1CC[C@@](C#Cc2ccc(C(F)(F)F)cc2)(OC)C1 (single isomer, unassigned) [Example 58, (S*)-1-(3-methoxy-3-((4-(trifluoromethyl)phenyl)ethynyl)pyrrolidin-1-yl)prop-2-en-1-one] | B (75% > B ≥ 50%)
7.00 to 8.00 | C=CC(=O)N1CC[C@](F)(C#Cc2ccc(C(F)(F)F)cc2)C1 (single isomer, unassigned) [Example 62, (S*)-1-(3-fluoro-3-((4-(trifluoromethyl)phenyl)ethynyl)pyrrolidin-1-yl)prop-2-en-1-one] | B (75% > B ≥ 50%)
7.00 to 8.00 | C=CC(=O)N1CC[C@@](F)(C#Cc2ccc(C(F)(F)F)cc2)C1 (single isomer, unassigned) [Example 63, (R*)-1-(3-fluoro-3-((4-(trifluoromethyl)phenyl)ethynyl)pyrrolidin-1-yl)prop-2-en-1-one] | A (A ≥ 75%)
7.00 to 8.00 | C=CC(=O)N1CC[C@](O)(C#Cc2ccc(C(F)(F)F)cc2)C1 (single isomer, unassigned) [Example 64, (S*)-1-(3-hydroxy-3-((4-(trifluoromethyl)phenyl)ethynyl)pyrrolidin-1-yl)prop-2-en-1-one] | A (A ≥ 75%)
6.30 to 7.00 | C=CC(=O)N1CC[C@@](O)(C#Cc2ccc(C(F)(F)F)cc2)C1 (single isomer, unassigned) [Example 65, (R*)-1-(3-hydroxy-3-((4-(trifluoromethyl)phenyl)ethynyl)pyrrolidin-1-yl)prop-2-en-1-one] | A (A ≥ 75%)
7.00 to 8.00 | C=CC(=O)N1CC[C@H](C#Cc2ccc(C(F)(F)F)cc2)C1 (single isomer, unassigned) [Example 66, (R*)-1-(3-((4-(trifluoromethyl)phenyl)ethynyl)pyrrolidin-1-yl)prop-2-en-1-one] | A (A ≥ 75%)
6.30 to 7.00 | C=C(F)C(=O)N1CC[C@@H](/C=C/c2ccc(C(F)(F)F)cc2)C1 (single isomer, unassigned) [Example 68] | B (75% > B ≥ 50%)
6.30 to 7.00 | C=C(F)C(=O)N1CC[C@H](/C=C/c2ccc(C(F)(F)F)cc2)C1 (single isomer, unassigned) [Example 69] | B (75% > B ≥ 50%)
7.00 to 8.00 | C=CC(=O)N1C[C@H](Nc2ncccn2)[C@@H](/C=C/c2ccc(C(F)(F)F)cc2)C1 (single isomer, unassigned) [Example 84] | A (A ≥ 75%)
≥ 8.00 | C=CC(=O)N1CCC(/C=C/Cc2ccc(C(F)(F)F)cc2)C1 (single isomer, unassigned) [Example 88, (E)-1-(3-(3-(4-(trifluoromethyl)phenyl)prop-1-en-1-yl)pyrrolidin-1-yl)prop-2-en-1-one] | B (75% > B ≥ 50%)
7.00 to 8.00 | C=CC(=O)N1CCC(/C=C\Cc2ccc(C(F)(F)F)cc2)C1 (single isomer, unassigned) [Example 89, (Z)-1-(3-(3-(4-(trifluoromethyl)phenyl)prop-1-en-1-yl)pyrrolidin-1-yl)prop-2-en-1-one] | A (A ≥ 75%)
< 6.30 | C=CC(=O)N1CCC(/C=C\C(C)(C)c2ccc(C(F)(F)F)cc2)C1 (single isomer, unassigned) [Example 91, (Z)-1-(3-(3-methyl-3-(4-(trifluoromethyl)phenyl)but-1-en-1-yl)pyrrolidin-1-yl)prop-2-en-1-one] | B (75% > B ≥ 50%)
< 6.30 | C=CC(=O)N1CCC(/C=C/C(C)(C)c2ccc(C(F)(F)F)cc2)C1 (single isomer, unassigned) [Example 92, (E)-1-(3-(3-methyl-3-(4-(trifluoromethyl)phenyl)but-1-en-1-yl)pyrrolidin-1-yl)prop-2-en-1-one] | B (75% > B ≥ 50%)
